Where “and” joins values, the source holds several entries; their conditions need not be identical. Equal values may be shown once.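 Tested at 5 concentrations; 48 h exposure; 96-well plates; endpoints linearly interpolated, else capped at highest concentration. GI50 marks 50% less growth. TGI: concentration producing complete growth inhibition.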
Tests used:
Assay in all cases: growth of human tumour cells (NCI), 48 h
NCI-H226 lung = system: NCI-H226 lung
SF-268 CNS = system: SF-268 CNS
UACC-257 melanoma = system: UACC-257 melanoma
RPMI-8226 leukemia = system: RPMI-8226 leukemia
786-0 renal = system: 786-0 renal
SR leukemia = system: SR leukemia
OVCAR-8 ovarian = system: OVCAR-8 ovarian
M14 melanoma = system: M14 melanoma
SW-620 colon = system: SW-620 colon
MALME-3M melanoma = system: MALME-3M melanoma

SMILES | GI50 (NCI-H226 lung) | TGI (NCI-H226 lung) | GI50 (SF-268 CNS) | TGI (SF-268 CNS) | GI50 (UACC-257 melanoma) | TGI (UACC-257 melanoma) | GI50 (RPMI-8226 leukemia) [µM] | TGI (RPMI-8226 leukemia) | GI50 (786-0 renal) | TGI (786-0 renal) | GI50 (SR leukemia) [µM] | TGI (SR leukemia) | GI50 (OVCAR-8 ovarian) | TGI (OVCAR-8 ovarian) | GI50 (M14 melanoma) | TGI (M14 melanoma) | GI50 (SW-620 colon) [µM] | TGI (SW-620 colon) | GI50 (MALME-3M melanoma) | TGI (MALME-3M melanoma)
C=C1c2c(C)nn(-c3ccc(C#CCOC4OC(CO)C(O)C(O)C4O)cc3)c2N(C)C23C[C@H]1C1(C)c4c(C)nn(-c5ccc(C#CCOC6OC(CO)C(O)C(O)C6O)cc5)c4N(C)C(C)(C[C@H]12)C3 (stereo not given in full) | 1.62 µM | 3.7 µM | 1.75 µM | 3.57 µM | 1.82 µM | 4.56 µM | 0.29 | 1.72 µM | 2.66 µM | 7.78 µM | 3.28 | > 100 µM | 1 µM | 3.84 µM | 1.67 µM | 3.44 µM | 1.72 | 3.77 µM | 1.87 µM | 3.66 µM
CCCCCCCCCCCCCCCCCCOC[C@H](COP(=O)(O)O[C@H]1[C@H](O)[C@@H](O)[C@H](O)C[C@H]1O)OC | > 100 µM and 24 µM | > 100 µM and 44.5 µM | > 100 µM and 15 µM | > 100 µM and 29.7 µM | > 100 µM and 17 µM | > 100 µM and 31.5 µM |  | 79.7 µM and 30.7 µM | > 100 µM and 15.9 µM | > 100 µM and 57.8 µM |  | 45.9 µM and 40.8 µM | > 100 µM and 16.9 µM | > 100 µM and 31.8 µM | > 100 µM and 12 µM | > 100 µM and 24.7 µM |  | > 100 µM and 39.3 µM | > 100 µM and 18.3 µM | > 100 µM and 33.9 µM
COc1ccc2c(c1)NC1=C(C(=O)OC1)C2c1cc(OC)c(OC)c(OC)c1 (stereo not given) | < 0.01 µM | > 100 µM | < 0.01 µM | > 100 µM | < 0.01 µM | > 100 µM | < 0.01 | > 100 µM | < 0.01 µM | > 100 µM | < 0.01 | > 100 µM | < 0.01 µM | > 100 µM | < 0.01 µM | > 100 µM | < 0.01 | > 100 µM | 26 µM | > 100 µM
C[C@]12CCc3sc(Nc4ccc(OC(F)(F)F)cc4)nc3C1=CC[C@@H]1[C@@H]2CC[C@]2(C)C(=O)CC[C@@H]12 | 6.37 µM | 44.1 µM | 3.01 µM | 12.3 µM | 4.89 µM | 28.8 µM | 1.02 | 3.77 µM | 1.45 µM | 3.28 µM | 2.74 | > 100 µM | 3.49 µM | 25 µM | 3.29 µM | 8.72 µM | 2.21 | 5 µM | 3.45 µM | 16.8 µM
OCC12C=CC(C1)c1ccccc12 (stereo not given) |  | > 100 µM |  | > 100 µM |  | > 100 µM |  | > 100 µM |  | > 100 µM |  | > 100 µM |  | > 100 µM |  | > 100 µM |  | > 100 µM |  | > 100 µM
CCOc1cccc(/C=N/NC(=O)c2cccc(Nc3ccnc(C(F)(F)F)c3)c2)c1O | 0.827 µM | 9.82 µM | 0.873 µM | > 45.3 µM | 3.09 µM | 24 µM | 2.16 | > 100 µM | 1.18 µM | > 20.7 µM | 0.212 | 8.67 µM | 1.12 µM | 37 µM | 1.22 µM | 7.88 µM | 3.04 | > 88.7 µM | 1.82 µM | 18.9 µM
N[C@H](C(=O)O)[C@@H]1CC(Cl)=NO1 | 39.9 µM and 10.8 µM | > 316 µM | 10.2 µM | > 848 µM | 84.8 µM | > 1000 µM | 11.1 | 811 µM |  | > 1000 µM | 3.44 | > 583 µM | 22.2 µM | 502 µM | 38.9 µM | > 1000 µM | 7.48 | > 1000 µM |  | 542 µM
Cc1cc(N(CC(C)Br)CC(C)Br)ccc1N=Nc1ccccc1C(=O)O (stereo not given) |  | 13.3 µM |  | > 38.8 µM |  | 19 µM |  | 7.24 µM |  | 16.4 µM |  | > 40.7 µM |  | > 52.4 µM |  | 20.1 µM |  | > 84.1 µM |  | 18.6 µM
CC1(C)N=C(N)N=C(N)N1c1ccc(CCC(=O)Nc2ccc(S(=O)(=O)F)cc2)c(Cl)c1 | 14.4 µM | > 100 µM | 0.507 µM | > 100 µM | > 42.5 µM | > 100 µM | 0.515 | > 100 µM | 0.697 µM | > 100 µM | 0.179 | > 100 µM | 4.66 µM | > 100 µM | 0.762 µM | > 100 µM | 0.144 | > 100 µM | 19.9 µM | > 100 µM
O=C(Oc1ccc[nH]c1=O)c1cc([N+](=O)[O-])cc([N+](=O)[O-])c1 | > 100 µM | > 100 µM | > 100 µM | > 100 µM | > 100 µM | > 100 µM | > 100 | > 100 µM | > 100 µM | > 100 µM | 74.8 | > 100 µM | > 100 µM | > 100 µM | > 100 µM | > 100 µM | 99 | > 100 µM | 51.7 µM | > 100 µM
CCC1=CCN(c2cc(C)ccn2)OC1c1ccc(OC)cc1 (stereo not given) |  | > 100 µM |  | > 100 µM |  | 86.1 µM |  | 62.6 µM |  | > 100 µM |  | 68.5 µM |  | > 100 µM |  | > 100 µM |  | > 100 µM |  | 84.1 µM
O=C1C=CC(=O)C2C1C1(Cl)C(Cl)=C(Cl)C2(Cl)C1(Cl)Cl (stereo not given) | 10.8 µM | 49.1 µM | 3.16 µM | 14.8 µM | 6.82 µM | 20 µM | 4.78 | > 100 µM | 12.5 µM | 30.1 µM | 2.53 | 12.3 µM | 10.1 µM | 48.6 µM | 3.35 µM | 13.3 µM | 3.94 | 15.1 µM | 3.23 µM | 15.8 µM
COc1ccc([C@@]2(O)c3c(ccc(O)c3OC)[C@H]2OC)c(OC)c1 |  | > 100 µM |  | > 100 µM |  | > 100 µM |  | > 100 µM |  | > 100 µM |  | > 100 µM |  | > 100 µM |  | > 100 µM |  | > 100 µM |  | > 100 µM
